Here are results for eleven compounds from ChEMBL document CHEMBL1201862, “PubChem BioAssay data set” (2004).

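In this assay, cells in 96-well plates receive the compound at five concentrations for 48 hours. Endpoints are linearly interpolated between the surrounding concentrations. At the GI50, growth is halved.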 Active and inactive are the calls of the source. Rule as the data show it: active = GI50 up to about 1.1 µM and inactive = higher.

Holding throughout (test): NCI anticancer screen, dose series, 48 h
Test [1] has as its system ACHN.
In test [2] the test system is HL-60.
Test [3] concerns HOP-62.
Test [4] concerns HT-29.
Test [5] relates to Hs-578T.
For test [6], the system named is LOX IMVI.
Test [7] deals with MCF7.
The test system of test [8] is Malme-3M.
Test [9] has as its system NCI-H23.
The subject of test [10] is NCI/ADR-RES.
Test [11] concerns OVCAR-8.
For test [12], the system named is RXF 393.
The test system of test [13] is SF-268.
For test [14], the system named is SF-295.
Test [15] relates to SF-539.
Test [16] deals with SNB-19.
Test [17] deals with SR.
The test system of test [18] is U-251.
Test [19] has as its system UACC-257.
The subject of test [20] is UACC-62.

With `NS(=O)(=O)c1ccc(/N=N/c2ccc(O)c(O)c2)cc1`, the GI50 was 3.22 µM (inactive) in test [1]; 16.9 µM (inactive) in test [2]; 27.4 µM (inactive) in test [3]; 27.2 µM (inactive) in [4]; 20 µM (inactive) in test [5]; 15 µM (inactive) in test [6]. Further, the GI50 in test [7] is 27.5 µM (inactive); in test [8], 21.3 µM (inactive); in test [9], 17 µM (inactive); in [10], 16.9 µM (inactive); in test [11] it was 4.88 µM (inactive); in [12] it was 17.7 µM (inactive). Further, the GI50 in [13] is 14.5 µM (inactive); in [14], 37 µM (inactive); in test [15], 15.9 µM (inactive); in test [16], 21.8 µM (inactive); in test [17] it was 3.05 µM (inactive); in test [18], 12.6 µM (inactive). Besides, the GI50 in [19] was 24.3 µM (inactive).

For the compound `CC(C)(C)OC(=O)N(CCCCNC(=O)C(F)(F)F)CCCNC(=O)C(F)(F)F`, the GI50 in test [1] is > 100 µM (inactive); in test [2] it was 87.5 µM (inactive); in test [3], > 100 µM (inactive); in test [4] it was > 100 µM (inactive); in test [5] it was > 100 µM (inactive); in test [7], > 100 µM (inactive). In addition, the GI50 in test [9], in [10], in [11], in [12], in test [13] and in [14] was > 100 µM (inactive) throughout. The GI50 in test [15], in test [16], in test [17], in test [18], in test [19] and in [20] was > 100 µM (inactive) throughout.

In the case of `C1COC2SC3=C(SC(=C4SC5=C(SCCS5)S4)S3)SC2O1` (centres undefined), the GI50 in test [1] is > 100 µM (inactive); in test [2] it was 33.9 µM (inactive); in [3] it was > 100 µM (inactive); in test [4], > 100 µM (inactive); in test [5] it was 80.9 µM (inactive); in test [7] it was > 100 µM (inactive). The GI50 is 13 µM (inactive) in test [8]; > 100 µM (inactive) in test [9]; > 100 µM (inactive) in test [10]; > 100 µM (inactive) in test [11]; > 100 µM (inactive) in test [12]; > 100 µM (inactive) in test [13]. Further, the GI50 in test [14] was 36.7 µM (inactive); in [15], 44 µM (inactive); in test [16], > 100 µM (inactive); in test [17] it was 3.68 µM (inactive); in test [18], > 100 µM (inactive); in test [19], > 100 µM (inactive). Further, in test [20], the GI50 was 22 µM (inactive).

Take `O=C(C1=CCC2(CC1)OCCO2)N(Cc1ccccc1)c1ccccc1I`: the GI50 in test [1] was 20.8 µM (inactive); in [2] it was 18 µM (inactive); in test [3], 22.4 µM (inactive); in [4] it was 17.9 µM (inactive); in test [5], 0.181 µM (active); in test [6] it was 21.2 µM (inactive). The GI50 was 26.4 µM (inactive) in [7]; 19.7 µM (inactive) in [9]; 15 µM (inactive) in test [10]; 16.4 µM (inactive) in [11]; 28.3 µM (inactive) in test [12]; 13.4 µM (inactive) in test [13]. In addition, the GI50 in test [14] was 21.4 µM (inactive); in [16], 18.9 µM (inactive); in test [17], 12.8 µM (inactive); in test [18], 19.9 µM (inactive); in test [19], 19.2 µM (inactive); in [20], 13.5 µM (inactive).

`C=CC(Br)(CBr)CCC(Br)C(C)(C)Cl` (centres undefined): the GI50 was 2.42 µM (inactive) in test [1]; 0.807 µM (active) in test [2]; 3.78 µM (inactive) in test [3]; 1.53 µM (inactive) in [4]; 3.4 µM (inactive) in test [5]; 1.83 µM (inactive) in test [7]. Further, the GI50 was 6.27 µM (inactive) in test [8]; 6.31 µM (inactive) in test [9]; 3.92 µM (inactive) in [10]; 4.42 µM (inactive) in test [11]; 2.99 µM (inactive) in test [12]; 2.02 µM (inactive) in test [13]. The GI50 in test [14] is 1.82 µM (inactive); in test [15], 1.99 µM (inactive); in test [16], 1.71 µM (inactive); in test [17], 1.66 µM (inactive); in test [18] it was 1.53 µM (inactive); in test [19], 3.87 µM (inactive). Besides, the GI50 in test [20] was 4.78 µM (inactive).

`COC1CCN(N(C)C)O1` (centres undefined): the GI50 in test [1], in [2], in test [3], in test [4], in test [5] and in test [6] was > 100 µM (inactive) each time. In addition, the GI50 in test [7], in [8], in test [9], in test [10], in test [11] and in [12] was > 100 µM (inactive) each time. The GI50 in test [13], in test [14], in [16], in test [17], in test [18] and in test [19] was > 100 µM (inactive) throughout. Also, the GI50 in test [20] was > 100 µM (inactive).

On to `CC1OC(O[C@H]2CC[C@]3(C)[C@H]4CC=C5[C@@H]6[C@@H](C)[C@H](C)CC[C@]6(C(=O)OC6OC(CO)C(O)C(O)C6O)CC[C@@]5(C(=O)O)[C@]4(C)CC[C@H]3C2(C)C)C(O)C(O)C1O` (some centres undefined), for which the GI50 in [1], in [2], in [3], in test [5], in test [6] and in test [7] was > 100 µM (inactive) throughout. Moreover, the GI50 in test [9], in test [10], in test [11], in test [12], in test [13] and in [14] was > 100 µM (inactive) each time. The GI50 in test [15], in [16], in test [17], in [18], in test [19] and in test [20] was > 100 µM (inactive) each time.

Turning to `COC(=O)N1C2C(C[C@@]1(C)C(=O)OC)c1ccccc1N2S(=O)(=O)c1ccccc1` (some centres undefined), the GI50 in test [1], in test [2], in test [4], in test [5], in test [6] and in test [7] was > 100 µM (inactive) each time. Besides, the GI50 in test [8], in [9], in test [10], in test [11], in test [12] and in test [13] was > 100 µM (inactive) throughout. Further, the GI50 in [14], in test [16], in test [17], in test [19] and in test [20] was > 100 µM (inactive) throughout.

Consider `CC#CCCN(CC#N)Cc1ccccc1`, for which the GI50 in [1] is 21.3 µM (inactive); in test [2] it was > 100 µM (inactive); in test [3], > 100 µM (inactive); in test [4], > 100 µM (inactive); in [5], > 100 µM (inactive); in test [6] it was > 100 µM (inactive). The GI50 is 20.1 µM (inactive) in test [7]; > 100 µM (inactive) in test [8]; > 100 µM (inactive) in test [9]; > 100 µM (inactive) in test [10]; > 100 µM (inactive) in [11]; > 100 µM (inactive) in test [12]. Besides, the GI50 in test [13], in test [14], in test [16], in test [17], in [18] and in test [19] was > 100 µM (inactive) in each case. The GI50 in [20] was 18.1 µM (inactive).

As for `C=CC1(CC/C(=C\[N+](=O)[O-])c2ccc(OC)c(OC)c2)OCC(C)(C)CO1`, the GI50 in test [1] is 17.8 µM (inactive); in test [2] it was 5.27 µM (inactive); in [3], 18.3 µM (inactive); in test [4], 19.9 µM (inactive); in [5], 24 µM (inactive); in test [6], 12.8 µM (inactive). Also, the GI50 was 13.9 µM (inactive) in test [7]; 23.2 µM (inactive) in test [8]; 14.1 µM (inactive) in test [9]; 13.9 µM (inactive) in [10]; 15.2 µM (inactive) in [11]; 12.9 µM (inactive) in [12]. For the same compound, the GI50 in test [13] is 16 µM (inactive); in test [14], 18.7 µM (inactive); in test [16], 16.9 µM (inactive); in [17], 3.61 µM (inactive); in test [18], 23.1 µM (inactive); in test [19], 10.2 µM (inactive). Moreover, the GI50 in test [20] is 13.2 µM (inactive).

Consider `NC(Cc1ccc(O)cn1)C(=O)NC(C(=O)O)c1ccccc1` (centres undefined), for which the GI50 in [1], in test [2], in test [3], in test [4], in [5] and in [6] was > 100 µM (inactive) throughout. Also, the GI50 in test [7], in test [8], in test [9], in test [10], in test [11] and in test [12] was > 100 µM (inactive) throughout. For the same compound, the GI50 in test [13], in [14], in [15], in test [16], in test [17] and in test [18] was > 100 µM (inactive) each time. Besides, the GI50 in [19] is > 100 µM (inactive).
